Our source for the Activity and viability values is ChEMBL document CHEMBL4014287, “Jesridonin in combination with paclitaxel demonstrates synergistic anti-tumor activity in human esophageal carcinoma cells” (Bioorg Med Chem Lett, 2017).

Molecules are shown by their SMILES. Calls of active or inactive are those of the source. No cut-off for these calls is given here.

The subject of series [1] is ECa-109 cell line. Kind of series: Cytotoxicity against human EC109 cells assessed as reduction in cell viability after 24 hrs by MTT assay. It counts as functional, cell-based. In general terms: Tetrazolium assays rely on reduction of a dye to a coloured formazan, in cell work by metabolically active cells.
Series [2] concerns ECa-109 cell line. Kind of series: Induction of apoptosis in human EC109 cells assessed as nuclear shrinkage at 5 nM after 24 hrs by Hochest 33258 staining based fluorescent microscopic analysis. It counts as functional, cell-based.
Series [3] concerns ECa-109 cell line. Kind of series: Induction of apoptosis in human EC109 cells assessed as viable cells at 5 nM after 24 hrs by Annexin V-FITC/propidium iodide staining based flow cytometry (reference value: 96.1%). Format: functional. As to conditions: ECa-109, 24 h, read-out: Activity. On the technique in general: In flow cytometry, cells or beads pass a laser one at a time.

Series [4] concerns ECa-109 cell line. Nature of the series: Induction of apoptosis in human EC109 cells assessed as early apoptotic cells at 5 nM after 24 hrs by Annexin V-FITC/propidium iodide staining based flow cytometry (reference value: 1.3%). Format: functional.
In series [5] the test system is ECa-109 cell line. Kind of series: Induction of apoptosis in human EC109 cells assessed as late apoptotic cells at 5 nM after 24 hrs by Annexin V-FITC/propidium iodide staining based flow cytometry (reference value: 1%). It counts as functional.
The subject of series [6] is ECa-109 cell line. Kind of series: Induction of apoptosis in human EC109 cells assessed as necrotic cells at 5 nM after 24 hrs by Annexin V-FITC/propidium iodide staining based flow cytometry (reference value: 1.6 %). Format: functional.
Series [7] deals with Mus musculus. Kind of series: Toxicity in nude mouse xenografted with human EC109 cells assessed as body weight loss at 5 mg/kg measured after 21 days. Format: organism-based. The note with it: in vivo, 504 h.
The test system of series [8] is ECa-109 cell line. Kind of series: Induction of apoptosis in human EC109 cells assessed as nuclear condensation at 5 nM after 24 hrs by Hochest 33258 staining based fluorescent microscopic analysis. It counts as functional, cell-based.
Series [9] has as its system ECa-109 cell line. Kind of series: Antitumor activity against human EC109 cells xenografted in nude mouse assessed as induction of necrosis at 5 mg/kg measured after 21 days by H and E staining based assay. It counts as functional, organism-based.
The test system of series [10] is Mus musculus. Kind of series: Toxicity in nude mouse xenografted with human EC109 cells assessed as skin ulceration at 5 mg/kg measured after 21 days. Format: organism-based. As to conditions: in vivo, 504 h.
The test system of series [11] is Mus musculus. Nature of the series: Toxicity in nude mouse xenografted with human EC109 cells assessed as pathological changes at 5 mg/kg measured after 21 days. Format: organism-based. As to conditions: in vivo, 504 h.

Consider `CC(=O)O[C@H]1C(=O)[C@@]2(C)[C@H]([C@H](OC(=O)c3ccccc3)[C@]3(O)C[C@H](OC(=O)[C@H](O)[C@@H](NC(=O)c4ccccc4)c4ccccc4)C(C)=C1C3(C)C)[C@]1(OC(C)=O)CO[C@@H]1C[C@@H]2O` [PACLITAXEL], for which the Activity entry in the series with ECa-109 cell line [1] is “Dose-dependent effect”; in the series on ECa-109 cell line [4] it was 4.5%; with ECa-109 cell line [5] it was 0.9%; with ECa-109 cell line [6], 0.5%; in the series on Mus musculus [7] it was “Non-Toxic”; in the series with Mus musculus [10], “Non-Toxic”. Besides, the Activity entry with Mus musculus [11] is recorded as “Non-Toxic”. The outcome with ECa-109 cell line [2], with ECa-109 cell line [8] and with ECa-109 cell line [9] was Active. In addition, in the series on ECa-109 cell line [3], the viability at 0.005 µM was 94.1%.
